Target: T1, RAS G12D protein (Homo sapiens, UniProt P01116, G12D)
T1 construct: host or cells: Aspc-1 (AsPC-1) cells
Assay: Protein degradation study (western blot) in Aspc-1 cells
Format: cell-based
Conditions: for DC50: half-maximum degradation concentration on G12D in Aspc-1 cells
Description: Aspc-1 (Cobioer, CBP60546) cells in exponential growth phase were inoculated on a 6-well cell culture plate (Corning, 3516) at density of 1E6/well; and cells in the plate were cultured in a 37° C. incubator containing 5%-carbon dioxide. The next day, test compounds were dissolved in DMSO (Sigma, RNBF5902) for the preparation of a 10-mM concentration stock solution. The stock solution was diluted with complete medium (RPMI-1640 supplemented with 10% fetal bovine serum, 1% penicillin-streptomycin), yielding working solutions of various concentrations. The plate, after the addition of compounds, was placed in a 5% carbon dioxide incubator, and incubated at 37° C. for 24 hours (final DMSO concentration was 0.1%). The plate was then removed from the incubator, and the cells were washed twice with precooled PBS (Gibco, 14190250), followed by addition of 80 μL RIPA (CST, 9806S) lysis buffer (containing protease inhibitor (Invitrogen™, AM2696)) to each well. The adherent cells were scraped off with a cell scraper, and the cell lysate was transferred to a 1.5 mL centrifuge tube followed with a 30-minute incubation on ice. The lysate was then clarified with centrifugation at 12000 rpm for 10 min at 4° C. The supernatant was transferred into a new 1.5 mL centrifuge tube, and protein concentration was measured with BCA protein detection kit (Thermo Fisher, 23225). G12D protein level was assessed by western blot. A mixture of cell lysate (40 μL) and loading buffer (10 μL, 5×SDS (Beyotime, P0015L)) was denatured in a water-bath at 95° C. for 10 min. The denatured protein sample, at 30 μg/well, was loaded into a corresponding well of a 4-20% Bis-Tris gel (Kingsley, M00656). Protein samples were initially electrophoresed at 80 V for 30 minutes, followed by 120 V for 40 minutes, until the bromophenol blue strip ran to an appropriate position. After electrophoresis, iBlot2 (Life Technologies, IB21001) was used to transfer the separated samples onto PVDF film. The PVDF membrane was washed with double-distilled water and then blocked in TBST (Thermo Scientific, 28360) buffer containing 5% non-fat milk, for 2 hours. Blocked membrane was rinsed with tris-buffered saline tween-2 (Thermo Scientific, 28360, TBST) three times, 10 minutes each. Membrane was then incubated with 1:1000 diluted RAS Gi2D primary antibody (CST, cat #14429S) overnight at 4° C. Membrane was rinsed in a way described previously followed by 1 hour incubation of secondary antibody at room temperature. After washing the film for three times with TBST, ECL color developing solution was applied, and image was captured with Biorad Chemi Doc gel imager. The band gray value was quantified (Image Lab), and protein degradation level was calculated according to the following formulas:
Level of RAS G12D protein expression=(RAS G12D−compound/β-Actin)−compound/(RAS G12D−DMSO/β-Actin−DMSO)
Level of degradation (%)=(1−Rate of RAS G12D protein expression)×100
Symbols of −, +, ++, +++, ++++, +++++ indicate that the degradation level of Ras protein induced by test compounds was 10% or less, 10 to 30%, 30 to 60%, 60 to 70%, 70 to 75%, and greater than 75%, respectively. “NT” indicates not tested.
“NT” indicates not tested.

[1] = ASPC1, 24 h, 0.005 μM compound, Aspc-1 cells, 24 hours, read-out: Rate of protein degradation (%)
[2] = ASPC1, 24 h, 0.05 μM compound, Aspc-1 cells, 24 hours, read-out: Rate of protein degradation (%)

T1 sequence (P01116 1-188 isoform P01116-2 G12D): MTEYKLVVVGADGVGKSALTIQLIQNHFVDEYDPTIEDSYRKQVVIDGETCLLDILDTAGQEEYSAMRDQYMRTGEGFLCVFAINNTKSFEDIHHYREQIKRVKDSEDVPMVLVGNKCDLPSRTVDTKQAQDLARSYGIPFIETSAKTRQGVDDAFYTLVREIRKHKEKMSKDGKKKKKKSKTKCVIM

Row | percent protein degradation at 0.005 µM [1] | percent protein degradation at 0.05 µM [2] | SMILES | further results
1 | 10 to 30% | ≤ 10% | CCc1c(F)ccc2cc(O)cc(-c3c(Cl)cc4c(N5CCC[C@]6(CCO6)C5)nc(OCC5(CN6CCC7(CC6)CC(N6CCC(c8cc9c(cc8F)c(N8CCC(=O)NC8=O)nn9C)CC6)C7)CC5)nc4c3F)c12 (atropisomer, axis not shown) [Compound 239] | –
2 | – | – | CCc1c(F)ccc2cc(O)cc(-c3c(Cl)cc4c(N5CCC[C@]6(CCO6)C5)nc(OCC5(CN6CCC7(CC6)CC(N6CCC(c8cc9c(cc8F)c(N8CCC(=O)NC8=O)nn9C)CC6)C7)CC5)nc4c3F)c12 (atropisomer, axis not shown) [Compound 240] | Rate of protein degradation (%) (0.005 μM compound, Aspc-1 cells, 24 hours): + (10 to 30%); Rate of protein degradation (%) (0.05 μM compound, Aspc-1 cells, 24 hours): + (10 to 30%)
3 | – | – | CCc1c(F)ccc2cc(O)cc(-c3ncc4c(N5CCC[C@@](C)(O)C5)nc(OC5CCN(CC(=O)N6CCC7(CC6)CC(N6CCC(c8ccc9c(C%10CCC(=O)NC%10=O)nn(C)c9c8)CC6)C7)CC5)nc4c3F)c12 (some centres unmarked) [Compound 194] | DC50: > 1000 nM
4 | – | – | CCc1c(F)ccc2cc(O)cc(-c3ncc4c(N5CCC[C@@](C)(O)C5)nc(OCC5(CN6CCC7(CC6)CC(N6CC=C(c8ccc9c(c8)CN(C8CCC(=O)NC8=O)C9=O)CC6)C7)CC5)nc4c3F)c12 (some centres unmarked) [Compound 196] | DC50: 1 to 10 nM
5 | 30 to 60% | 60 to 70% | CCc1c(F)ccc2cc(O)cc(-c3ncc4c(N5CCC[C@@](C)(O)C5)nc(OCC5(CN6CCC7(CC6)CC(N6CCC(c8ccc(NC9CCC(=O)NC9=O)cc8F)CC6)C7)CC5)nc4c3F)c12 (some centres unmarked) [Compound 197] | percent protein degradation at 0.001 µM (ASPC1, 24 h, 1 nM compound, Aspc-1 cells, 24 hours, read-out: Rate of protein degradation (%)): 10 to 30%
6 | 30 to 60% | 30 to 60% | C#Cc1c(F)ccc2cccc(-c3ncc4c(N5CCC[C@](C)(O)C5)nc(OCC5(CN6CCC7(CC6)CC(N6CCC(c8ccc9c%10c(cccc8%10)C(=O)N9C8CCC(=O)NC8=O)CC6)C7)CC5)nc4c3F)c12 (some centres unmarked) [Compound 198] | –
7 | 30 to 60% | 30 to 60% | CCc1c(F)ccc2cccc(-c3ncc4c(N5CCC[C@](C)(O)C5)nc(OCC5(CN6CCC7(CC6)CC(N6CCC(c8ccc9c%10c(cccc8%10)C(=O)N9C8CCC(=O)NC8=O)CC6)C7)CC5)nc4c3F)c12 (some centres unmarked) [Compound 199] | –
8 | 10 to 30% | – | C#Cc1c(F)ccc2cc(O)cc(-c3ncc4c(N5CC=CCC5)nc(OCC5(CN6CCC7(CC6)CC(N6CCC(c8cc9c(cc8F)c(N8CCC(=O)NC8=O)nn9C)CC6)C7)CC5)nc4c3F)c12 [Compound 203] | –
9 | 10 to 30% | 10 to 30% | C#Cc1c(F)ccc2cc(O)cc(-c3ncc4c(N5CCC=CCC5)nc(OCC5(CN6CCC7(CC6)CC(N6CCC(c8cc9c(cc8F)c(N8CCC(=O)NC8=O)nn9C)CC6)C7)CC5)nc4c3F)c12 [Compound 206] | –
10 | ≤ 10% | ≤ 10% | CCc1c(F)ccc2cc(O)cc(-c3ncc4c(N5CCC[C@]6(CCO6)C5)nc(OCC5(CN6CCC7(CC6)CC(N6CCC(c8ccc(C(=O)NC9CCC(=O)NC9=O)c(F)c8)CC6)C7)CC5)nc4c3F)c12 (some centres unmarked) [Compound 209] | –
11 | ≤ 10% | 10 to 30% | CCc1c(F)ccc2cc(O)cc(-c3ncc4c(N5CCC[C@]6(CCO6)C5)nc(OCC5(CN6CCC(c7ccc8c(C9CCC(=O)NC9=O)nn(C)c8c7)CC6)CC5)nc4c3F)c12 (some centres unmarked) [Compound 212] | –
12 | 10 to 30% | 30 to 60% | CCc1c(F)ccc2cc(O)cc(-c3ncc4c(N5CCC[C@]6(CCO6)C5)nc(OCC5(CN6CCC(CN7CCC(c8ccc9c(C%10CCC(=O)NC%10=O)nn(C)c9c8)CC7)C6)CC5)nc4c3F)c12 (some centres unmarked) [Compound 215] | –
13 | 10 to 30% | 30 to 60% | CCc1c(F)ccc2cc(O)cc(-c3ncc4c(N5CCC[C@]6(CCO6)C5)nc(OCC5(CN6CCC(N7CCC(c8ccc9c(N%10CCC(=O)NC%10=O)nn(C)c9c8)CC7)CC6)CC5)nc4c3F)c12 [Compound 218] | –
14 | 30 to 60% | 60 to 70% | CCc1c(F)ccc2cc(O)cc(-c3ncc4c(N5CCC[C@]6(CCO6)C5)nc(OCC5(CN6CCC7(CC(N8CCC(c9cc%10c(cc9F)c(N9CCC(=O)NC9=O)nn%10C)CC8)C7)C6)CC5)nc4c3F)c12 (some centres unmarked) [Compound 219] | –
15 | 30 to 60% | 30 to 60% | CCc1c(F)ccc2cc(O)cc(-c3ncc4c(N5CCC[C@]6(CCO6)C5)nc(OCC5(CN6CCC(C(=O)N7CCC(c8ccc9c(C%10CCC(=O)NC%10=O)nn(C)c9c8)CC7)CC6)CC5)nc4c3F)c12 (some centres unmarked) [Compound 220] | Dmax (ASPC1, G12D in Aspc-1 cells): 55%; DC50: 1 to 10 nM
16 | ≤ 10% | ≤ 10% | CCc1c(F)ccc2cc(O)cc(-c3ncc4c(N5CCC[C@]6(CCO6)C5)nc(OCC5(CN6CCC7(CC(c8cc9c(cc8F)c(N8CCC(=O)NC8=O)nn9C)C7)C6)CC5)nc4c3F)c12 (some centres unmarked) [Compound 222] | –
17 | 10 to 30% | 10 to 30% | CCc1c(F)ccc2cc(O)cc(-c3ncc4c(N5CCC[C@]6(CCO6)C5)nc(OCC5(CN6CCC(C(=O)N7CCC(c8cc9c(cc8F)c(N8CCC(=O)NC8=O)nn9C)CC7)CC6)CC5)nc4c3F)c12 [Compound 224] | –
18 | 30 to 60% | 30 to 60% | CCc1c(F)ccc2cc(O)cc(-c3ncc4c(N5CCC[C@]6(CCO6)C5)nc(OCC5(CN6CCC(N7CCC(c8cc9c(cc8F)c(N8CCC(=O)NC8=O)nn9C)CC7)CC6)CC5)nc4c3F)c12 [Compound 225] | –
19 | 10 to 30% | 30 to 60% | CCc1c(F)ccc2cc(O)cc(-c3ncc4c(N5CCC[C@]6(CCO6)C5)nc(OCC5(CN6CCC(N7CCC(c8cc9c(cc8F)c(N8CCC(=O)NC8=O)nn9C)CC7)C6)CC5)nc4c3F)c12 (some centres unmarked) [Compound 226] | –
20 | ≤ 10% | 10 to 30% | CCc1c(F)ccc2cc(O)cc(-c3ncc4c(N5CCC[C@]6(CCO6)C5)nc(OCC5(CN6CCC7(CC6)CC(N6CCC(c8cnn(C9CCC(=O)NC9=O)c(=O)c8)CC6)C7)CC5)nc4c3F)c12 (some centres unmarked) [Compound 227] | –
21 | 10 to 30% | 30 to 60% | CCc1c(F)ccc2cc(O)cc(-c3ncc4c(N5CCC[C@]6(CCO6)C5)nc(OCC5(CN6CCC7(CC6)CC(N6CCC(c8ccc(NC9CCC(=O)NC9=O)nc8)CC6)C7)CC5)nc4c3F)c12 (some centres unmarked) [Compound 229] | –
22 | ≤ 10% | ≤ 10% | CCc1c(F)ccc2cc(O)cc(-c3ncc4c(N5CCC[C@]6(CCO6)C5)nc(OCC5(CN6CCC7(CC6)CC(N6CCC(c8ccc(C9CCC(=O)NC9=O)cn8)CC6)C7)CC5)nc4c3F)c12 (some centres unmarked) [Compound 230] | –
23 | 10 to 30% | 30 to 60% | CCc1c(F)ccc2cc(O)cc(-c3ncc4c(N5CCC[C@]6(CCO6)C5)nc(OCC5(CN6CCC7(CC6)CC(N6Cc8cc9c(cc8C6)C(=O)N(C6CCC(=O)NC6=O)C9=O)C7)CC5)nc4c3F)c12 (some centres unmarked) [Compound 231] | –
24 | 10 to 30% | 30 to 60% | CCc1c(F)ccc2cc(O)cc(-c3ccc4c(N5CCC[C@]6(CCO6)C5)nc(OCC5(CN6CCC7(CC6)CC(N6CCC(c8cc9c(cc8F)c(N8CCC(=O)NC8=O)nn9C)CC6)C7)CC5)nc4c3F)c12 [Compound 232] | –
25 | 10 to 30% | 30 to 60% | CCc1c(F)ccc2cc(O)cc(-c3ncc4c(N5CCC[C@]6(CCO6)C5)nc(OCC5(CN6CCC7(CCC(N8Cc9cc%10c(cc9C8)C(=O)N(C8CCC(=O)NC8=O)C%10=O)CC7)CC6)CC5)nc4c3F)c12 (some centres unmarked) [Compound 233] | –

— patent publication US20240246963A1, “BIFUNCTIONAL COMPOUNDS AND PHARMACEUTICAL USES THEREOF” (RISEN (SUZHOU) PHARMA TECH CO., LTD., priority 2022, published 2024)
